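Dose response: 5 concentrations. Exposure: 48 h. Format: 96-well plates. Endpoint: linear interpolation; highest concentration if not reached. Abbreviation: GI50, concentration required for 50% inhibition of growth.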 Active and inactive are the calls of the source. Rule as the data show it: active = GI50 up to about 1.1 µM and inactive = higher.
Legend:
Assay in all cases: NCI anticancer screen, dose series, 48 h
RPMI-8226 = tested on: RPMI-8226
K562 = tested on: K562
HL-60 = tested on: HL-60
DU-145 = tested on: DU-145
SNB-75 = tested on: SNB-75
UO-31 = tested on: UO-31
MDA-MB-231 = tested on: MDA-MB-231
NCI/ADR-RES = tested on: NCI/ADR-RES
NCI-H226 = tested on: NCI-H226
TK-10 = tested on: TK-10
A498 = tested on: A498
LOX IMVI = tested on: LOX IMVI
SK-MEL-2 = tested on: SK-MEL-2
SNB-19 = tested on: SNB-19
T47D = tested on: T47D
SF-539 = tested on: SF-539
SF-295 = tested on: SF-295
MOLT-4 = tested on: MOLT-4
NCI-H460 = tested on: NCI-H460
OVCAR-5 = tested on: OVCAR-5

For `NC(=O)c1ccc(S(=O)(=NS(=O)(=O)c2ccccc2)c2ccc(C(N)=O)cc2)cc1`, the GI50 (RPMI-8226) was > 100 µM (inactive), the GI50 (K562) was > 100 µM (inactive) and the GI50 (HL-60) was > 100 µM (inactive). The GI50 (DU-145) was > 100 µM (inactive), the GI50 (SNB-75) was > 100 µM (inactive) and the GI50 (UO-31) was > 100 µM (inactive). For the same compound, the GI50 (MDA-MB-231) was > 100 µM (inactive), the GI50 (NCI/ADR-RES) was > 100 µM (inactive) and the GI50 (NCI-H226) was > 100 µM (inactive). The GI50 (TK-10) was > 100 µM (inactive), the GI50 (A498) was > 100 µM (inactive) and the GI50 (LOX IMVI) was > 100 µM (inactive). For the same compound, the GI50 (SK-MEL-2) was > 100 µM (inactive), the GI50 (SNB-19) was > 100 µM (inactive) and the GI50 (T47D) was > 100 µM (inactive). For the same compound, the GI50 (SF-539) was > 100 µM (inactive), the GI50 (SF-295) was > 100 µM (inactive) and the GI50 (MOLT-4) was > 100 µM (inactive). The GI50 (NCI-H460) was > 100 µM (inactive) and the GI50 (OVCAR-5) was > 100 µM (inactive).
With `CC(C)(CN1CCCCC1)C(/C=C/c1ccc(Cl)c(Cl)c1)=N\NC(=O)N/N=C(/C=C/c1ccc(Cl)c(Cl)c1)C(C)(C)CN1CCCCC1` the GI50 (RPMI-8226) was 1.42 µM (inactive), the GI50 (K562) was 0.325 µM (active) and the GI50 (HL-60) was 1.52 µM (inactive). For the same compound, the GI50 (DU-145) was 1.85 µM (inactive), the GI50 (SNB-75) was 1.55 µM (inactive) and the GI50 (UO-31) was 4.14 µM (inactive). The GI50 (MDA-MB-231) was 2.06 µM (inactive), the GI50 (NCI/ADR-RES) was 1.73 µM (inactive) and the GI50 (NCI-H226) was 2.3 µM (inactive). For the same compound, the GI50 (TK-10) was 1.66 µM (inactive), the GI50 (A498) was 1.72 µM (inactive) and the GI50 (LOX IMVI) was 1.12 µM (inactive). For the same compound, the GI50 (SK-MEL-2) was > 10 µM (inactive), the GI50 (SNB-19) was 1.69 µM (inactive) and the GI50 (T47D) was 2.05 µM (inactive). For the same compound, the GI50 (SF-539) was 1.77 µM (inactive), the GI50 (SF-295) was 1.71 µM (inactive) and the GI50 (MOLT-4) was 2.62 µM (inactive). For the same compound, the GI50 (NCI-H460) was 1.35 µM (inactive) and the GI50 (OVCAR-5) was 1.59 µM (inactive).
`COc1cccc(C2SCC(=O)N2c2ccc(-n3c(-c4ccccc4)nc4ccccc4c3=O)cc2)c1OC` (stereo not given) was tested, and the GI50 (RPMI-8226) was > 100 µM (inactive), the GI50 (K562) was > 100 µM (inactive) and the GI50 (HL-60) was > 100 µM (inactive). For the same compound, the GI50 (DU-145) was > 100 µM (inactive), the GI50 (SNB-75) was > 60.5 µM (inactive) and the GI50 (UO-31) was > 43.7 µM (inactive). For the same compound, the GI50 (MDA-MB-231) was > 100 µM (inactive), the GI50 (NCI/ADR-RES) was > 100 µM (inactive) and the GI50 (NCI-H226) was > 87.9 µM (inactive). For the same compound, the GI50 (TK-10) was > 100 µM (inactive), the GI50 (A498) was > 100 µM (inactive) and the GI50 (LOX IMVI) was > 100 µM (inactive). For the same compound, the GI50 (SK-MEL-2) was > 100 µM (inactive), the GI50 (SNB-19) was > 100 µM (inactive) and the GI50 (T47D) was 31.6 µM (inactive). For the same compound, the GI50 (SF-539) was > 100 µM (inactive), the GI50 (SF-295) was > 100 µM (inactive) and the GI50 (MOLT-4) was > 100 µM (inactive). For the same compound, the GI50 (NCI-H460) was > 100 µM (inactive) and the GI50 (OVCAR-5) was > 100 µM (inactive).
`NCC(=O)NC(CO)C(=O)O` (stereo not given) was tested, and the GI50 (RPMI-8226) was > 100 µM (inactive), the GI50 (K562) was > 100 µM (inactive) and the GI50 (HL-60) was > 100 µM (inactive). For the same compound, the GI50 (DU-145) was > 100 µM (inactive), the GI50 (SNB-75) was > 100 µM (inactive) and the GI50 (UO-31) was > 100 µM (inactive). For the same compound, the GI50 (MDA-MB-231) was > 100 µM (inactive), the GI50 (NCI/ADR-RES) was > 100 µM (inactive) and the GI50 (NCI-H226) was > 100 µM (inactive). For the same compound, the GI50 (TK-10) was > 100 µM (inactive), the GI50 (A498) was > 100 µM (inactive) and the GI50 (LOX IMVI) was > 100 µM (inactive). The GI50 (SK-MEL-2) was > 100 µM (inactive), the GI50 (SNB-19) was > 100 µM (inactive) and the GI50 (T47D) was > 100 µM (inactive). The GI50 (SF-539) was > 100 µM (inactive), the GI50 (SF-295) was > 100 µM (inactive) and the GI50 (MOLT-4) was > 27.5 µM (inactive). The GI50 (NCI-H460) was > 100 µM (inactive) and the GI50 (OVCAR-5) was > 100 µM (inactive).
For `COc1ccc(N(C(=O)OC(C)(C)C)[C@@H]2C(C)=C[C@H]([S@@+]([O-])c3ccc(C)cc3)[C@@H]3C(=O)N(C)C(=O)[C@@H]32)cc1`, the GI50 (RPMI-8226) was 14.3 µM (inactive), the GI50 (K562) was 30 µM (inactive) and the GI50 (HL-60) was 22 µM (inactive). For the same compound, the GI50 (DU-145) was 30.2 µM (inactive), the GI50 (SNB-75) was 4.94 µM (inactive) and the GI50 (UO-31) was 15.1 µM (inactive). The GI50 (MDA-MB-231) was 17.4 µM (inactive), the GI50 (NCI/ADR-RES) was 21.5 µM (inactive) and the GI50 (NCI-H226) was 16.6 µM (inactive). The GI50 (TK-10) was 17.1 µM (inactive), the GI50 (A498) was 10.1 µM (inactive) and the GI50 (LOX IMVI) was 3.85 µM (inactive). The GI50 (SK-MEL-2) was 18.5 µM (inactive), the GI50 (SNB-19) was 17.5 µM (inactive) and the GI50 (T47D) was 33.6 µM (inactive). For the same compound, the GI50 (SF-539) was 18.4 µM (inactive), the GI50 (SF-295) was 15.8 µM (inactive) and the GI50 (MOLT-4) was 27.5 µM (inactive). The GI50 (NCI-H460) was 25.2 µM (inactive) and the GI50 (OVCAR-5) was 21.9 µM (inactive).
In the case of `CC(NNC(=O)c1cc[n+]([BH2-]C#N)cc1)c1ccccc1` (stereo not given), the GI50 (RPMI-8226) is reported as > 100 µM (inactive), the GI50 (K562) is reported as > 100 µM (inactive) and the GI50 (HL-60) is reported as > 100 µM (inactive). The GI50 (DU-145) was > 100 µM (inactive), the GI50 (SNB-75) was > 100 µM (inactive) and the GI50 (UO-31) was > 100 µM (inactive). For the same compound, the GI50 (MDA-MB-231) was > 100 µM (inactive), the GI50 (NCI/ADR-RES) was > 100 µM (inactive) and the GI50 (NCI-H226) was > 100 µM (inactive). For the same compound, the GI50 (TK-10) was > 100 µM (inactive), the GI50 (A498) was > 100 µM (inactive) and the GI50 (LOX IMVI) was > 100 µM (inactive). The GI50 (SK-MEL-2) was > 100 µM (inactive), the GI50 (SNB-19) was > 100 µM (inactive) and the GI50 (T47D) was > 100 µM (inactive). For the same compound, the GI50 (SF-539) was > 100 µM (inactive), the GI50 (SF-295) was > 100 µM (inactive) and the GI50 (MOLT-4) was > 100 µM (inactive). The GI50 (NCI-H460) was > 100 µM (inactive) and the GI50 (OVCAR-5) was > 100 µM (inactive).
With `CN(C)Cc1cc(C(=O)/C=C/c2cccc(Cl)c2)cc(CN(C)C)c1O` the GI50 (RPMI-8226) was 2.69 µM (inactive), the GI50 (K562) was 2.91 µM (inactive) and the GI50 (HL-60) was 1.69 µM (inactive). For the same compound, the GI50 (DU-145) was 6.3 µM (inactive), the GI50 (SNB-75) was 1.95 µM (inactive) and the GI50 (UO-31) was 5.78 µM (inactive). The GI50 (MDA-MB-231) was 2.75 µM (inactive), the GI50 (NCI/ADR-RES) was 18.5 µM (inactive) and the GI50 (NCI-H226) was 4.31 µM (inactive). The GI50 (TK-10) was 9.2 µM (inactive), the GI50 (A498) was 3.22 µM (inactive) and the GI50 (LOX IMVI) was 2.24 µM (inactive). For the same compound, the GI50 (SK-MEL-2) was 9.25 µM (inactive), the GI50 (SNB-19) was 24.5 µM (inactive) and the GI50 (T47D) was 4.18 µM (inactive). The GI50 (SF-539) was 6.14 µM (inactive), the GI50 (SF-295) was 13.5 µM (inactive) and the GI50 (MOLT-4) was 3.43 µM (inactive). For the same compound, the GI50 (NCI-H460) was 3.05 µM (inactive) and the GI50 (OVCAR-5) was 5.69 µM (inactive).

Source: ChEMBL document CHEMBL1201862, “PubChem BioAssay data set” (2004)
